In assay [1] the target is T1, kinases of Table 5 (Homo sapiens, UniProt P41743).
T1 sequence (P41743 1-596): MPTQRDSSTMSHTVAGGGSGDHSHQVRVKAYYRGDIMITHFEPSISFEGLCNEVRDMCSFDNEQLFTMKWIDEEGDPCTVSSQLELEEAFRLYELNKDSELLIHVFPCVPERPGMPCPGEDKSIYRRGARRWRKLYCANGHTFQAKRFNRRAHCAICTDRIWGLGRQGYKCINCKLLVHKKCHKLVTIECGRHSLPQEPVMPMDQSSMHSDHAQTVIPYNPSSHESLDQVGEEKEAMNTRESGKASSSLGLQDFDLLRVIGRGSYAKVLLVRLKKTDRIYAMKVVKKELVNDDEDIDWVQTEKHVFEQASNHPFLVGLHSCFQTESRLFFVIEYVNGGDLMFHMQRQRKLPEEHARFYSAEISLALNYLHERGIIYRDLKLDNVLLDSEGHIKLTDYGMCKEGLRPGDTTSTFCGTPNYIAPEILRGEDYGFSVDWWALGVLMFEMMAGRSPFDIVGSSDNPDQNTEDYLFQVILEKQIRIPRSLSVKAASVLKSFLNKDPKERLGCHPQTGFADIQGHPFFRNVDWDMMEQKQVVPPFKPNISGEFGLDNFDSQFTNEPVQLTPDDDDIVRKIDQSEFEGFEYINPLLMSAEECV
In words: Further analysis of a plurality of inhibitors and a plurality of kinases (Table 5 inhibition results). As to conditions: kinase PRKCI (Part I, plate A2, Domain 0). The arrangement: scale not given here. In kind it is biochemical. An excerpt: (§1) The wash solution is then discarded.

Assay [2] concerns the target kinases of Table 5 (Homo sapiens, UniProt O75914). The assay is described as above. In kind it is biochemical. Further details: scale not given here. The conditions noted are these: for Inhibition level: kinase PAK3; for Inhibition Results (Level): kinase PAK3 (Part II, plate D4, Domain 1).
From the text: as §1

A further assay has as its target EPHB3 (Homo sapiens, UniProt P54753). Put plainly: Dose-response analysis on 10-well kinase microarray. In kind it is biochemical. The conditions noted are these: different inhibitor concentration in each well; substrate MBP, histone and casein. The method, then:
as §1
Microarrays were prepared with 10 wells/slide, wherein the kinases EPHB3, FYN, and PRKCD and their substrate were immobilized in each well. The slide was coated with substrate essentially as described in Example I. Subsequently, a gasket with 10 openings was applied to the surface of the slide thereby creating 10 wells, i.e., the gasket provides the barriers between the wells. The accession numbers for the different kinases in the NCBI database are: for FYN: NM_002037; for PRKCD: NM_006254; and for EPHB3: NM_004443.

The next assay deals with PRKCD (Homo sapiens, UniProt Q05655). The description is as above. In kind it is biochemical. The conditions noted are these: different inhibitor concentration in each well; substrate MBP, histone and casein. The method, then:
as §1
(§2) Microarrays were prepared with 10 wells/slide, wherein the kinases EPHB3, FYN, and PRKCD and their substrate were immobilized in each well.

The test system of the next assay is 39 kinases (Table 4). Put plainly: Global specificity profiling experiment, single point inhibition on kinase microarray. Format: biochemical. As to conditions: substrates histone, casein, MBP, polyEY, control 2% DMSO. How it is done:
as §1
To assess the application of microarray assays for compound profiling, seven known inhibitors (see Table of inhibitors used in global specificity profiling experiment) and one control (2% DMSO) were tested on microarrays deposited with a group of kinases (as well as positive and negative controls). The method of Example I was used. Twelve spots of each kinase or control were deposited on each array, and three arrays were used for each inhibitor. A mixture of generic kinase substrates (histone, casein, MBP, and polyEY) was used in the assay. The average of all signals from the same inhibitor or control experiment was calculated.
. The general specificities observed were consistent with the known general specificities for these inhibitors, which are listed in Table 3.

In another assay the test system is tyrosine kinases. Put plainly: Inhibitor specificity profiling on kinase microarray (fifty kinases, gamma-AT33P). The conditions noted are these: inhibitor 100 μm; substrate mixture of MBP, histone and casein.
The target in assay [3] is T2, FYN (Homo sapiens, UniProt P06241). Put plainly: Dose-response analysis on 10-well kinase microarray. As to conditions: different inhibitor concentration in each well; substrate MBP, histone and casein. Format: biochemical. How it is done: as §1, §2
T2 sequence (P06241 whole entry): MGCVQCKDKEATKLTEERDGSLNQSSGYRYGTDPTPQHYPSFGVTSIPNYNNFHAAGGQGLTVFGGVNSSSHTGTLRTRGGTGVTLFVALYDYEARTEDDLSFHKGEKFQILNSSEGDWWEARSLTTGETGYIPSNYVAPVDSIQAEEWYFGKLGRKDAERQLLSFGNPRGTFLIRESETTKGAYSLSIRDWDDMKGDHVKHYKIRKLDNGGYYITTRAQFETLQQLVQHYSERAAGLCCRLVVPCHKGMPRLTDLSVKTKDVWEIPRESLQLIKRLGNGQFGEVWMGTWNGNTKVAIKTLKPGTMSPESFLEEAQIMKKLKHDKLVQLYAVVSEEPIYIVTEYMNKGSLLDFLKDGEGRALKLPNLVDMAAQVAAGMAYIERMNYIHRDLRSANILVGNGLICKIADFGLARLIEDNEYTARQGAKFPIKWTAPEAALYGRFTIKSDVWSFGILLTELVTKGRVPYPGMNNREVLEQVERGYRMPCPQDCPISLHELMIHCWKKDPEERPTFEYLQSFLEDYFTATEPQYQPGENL
Assay [4] deals with T2, FYN. In words: Global specificity profiling experiment, single point inhibition on kinase microarray. Format: biochemical. The conditions noted are these: substrates histone, casein, MBP, polyEY. The method, then:
as §1
A mixture of generic kinase substrates (histone, casein, MBP, and polyEY) was used in the assay. The average of all signals from the same inhibitor or control experiment was calculated.
To expedite data analysis regarding the kinase families that are inhibited by a particular […], a graphical representation can be constructed of inhibition data for substrates in such a manner that phylogenetically related kinases can be spatially arranged on the graphical representation.

The structures appear in SMILES notation.

Sequence of kinases of Table 5 (Homo sapiens, UniProt O75914) (O75914 whole entry): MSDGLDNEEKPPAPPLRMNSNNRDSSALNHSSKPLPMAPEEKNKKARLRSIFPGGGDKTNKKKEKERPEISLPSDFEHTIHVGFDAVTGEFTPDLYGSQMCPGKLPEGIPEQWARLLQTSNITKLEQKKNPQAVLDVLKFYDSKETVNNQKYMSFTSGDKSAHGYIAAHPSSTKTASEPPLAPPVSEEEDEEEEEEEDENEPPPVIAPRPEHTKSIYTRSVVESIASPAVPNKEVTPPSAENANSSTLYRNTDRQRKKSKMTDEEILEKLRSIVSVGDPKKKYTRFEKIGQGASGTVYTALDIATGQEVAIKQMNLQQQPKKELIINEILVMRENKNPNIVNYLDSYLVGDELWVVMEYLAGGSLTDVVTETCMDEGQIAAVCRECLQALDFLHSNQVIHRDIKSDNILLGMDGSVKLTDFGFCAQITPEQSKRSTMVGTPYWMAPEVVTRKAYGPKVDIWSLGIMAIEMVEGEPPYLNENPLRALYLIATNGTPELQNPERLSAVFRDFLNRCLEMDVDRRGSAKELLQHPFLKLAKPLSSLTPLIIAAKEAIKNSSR
Sequence of EPHB3 (P54753 34-998): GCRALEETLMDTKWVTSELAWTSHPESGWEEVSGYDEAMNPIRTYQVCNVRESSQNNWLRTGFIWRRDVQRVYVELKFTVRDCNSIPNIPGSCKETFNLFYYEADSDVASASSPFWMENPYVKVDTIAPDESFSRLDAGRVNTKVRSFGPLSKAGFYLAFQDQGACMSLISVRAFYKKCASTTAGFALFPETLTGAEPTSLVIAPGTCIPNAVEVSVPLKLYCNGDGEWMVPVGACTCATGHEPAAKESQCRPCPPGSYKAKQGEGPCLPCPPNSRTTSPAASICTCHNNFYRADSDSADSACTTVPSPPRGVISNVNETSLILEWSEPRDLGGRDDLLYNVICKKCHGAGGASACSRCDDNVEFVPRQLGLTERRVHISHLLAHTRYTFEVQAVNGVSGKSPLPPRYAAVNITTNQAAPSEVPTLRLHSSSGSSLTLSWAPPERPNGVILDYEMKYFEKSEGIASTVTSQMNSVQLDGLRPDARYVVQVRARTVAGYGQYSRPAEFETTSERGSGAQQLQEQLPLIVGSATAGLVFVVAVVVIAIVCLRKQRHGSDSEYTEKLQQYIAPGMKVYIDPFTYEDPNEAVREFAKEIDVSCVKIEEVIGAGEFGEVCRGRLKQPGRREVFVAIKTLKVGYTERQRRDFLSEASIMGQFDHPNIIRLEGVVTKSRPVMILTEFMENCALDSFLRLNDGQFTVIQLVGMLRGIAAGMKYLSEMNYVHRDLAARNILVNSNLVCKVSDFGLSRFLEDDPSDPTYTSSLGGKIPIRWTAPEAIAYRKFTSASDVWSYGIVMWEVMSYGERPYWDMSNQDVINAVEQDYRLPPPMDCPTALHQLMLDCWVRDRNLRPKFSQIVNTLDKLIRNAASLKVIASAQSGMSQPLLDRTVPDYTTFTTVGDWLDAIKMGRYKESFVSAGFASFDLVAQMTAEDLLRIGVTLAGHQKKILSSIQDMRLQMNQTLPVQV
Sequence of PRKCD (Q05655 whole entry): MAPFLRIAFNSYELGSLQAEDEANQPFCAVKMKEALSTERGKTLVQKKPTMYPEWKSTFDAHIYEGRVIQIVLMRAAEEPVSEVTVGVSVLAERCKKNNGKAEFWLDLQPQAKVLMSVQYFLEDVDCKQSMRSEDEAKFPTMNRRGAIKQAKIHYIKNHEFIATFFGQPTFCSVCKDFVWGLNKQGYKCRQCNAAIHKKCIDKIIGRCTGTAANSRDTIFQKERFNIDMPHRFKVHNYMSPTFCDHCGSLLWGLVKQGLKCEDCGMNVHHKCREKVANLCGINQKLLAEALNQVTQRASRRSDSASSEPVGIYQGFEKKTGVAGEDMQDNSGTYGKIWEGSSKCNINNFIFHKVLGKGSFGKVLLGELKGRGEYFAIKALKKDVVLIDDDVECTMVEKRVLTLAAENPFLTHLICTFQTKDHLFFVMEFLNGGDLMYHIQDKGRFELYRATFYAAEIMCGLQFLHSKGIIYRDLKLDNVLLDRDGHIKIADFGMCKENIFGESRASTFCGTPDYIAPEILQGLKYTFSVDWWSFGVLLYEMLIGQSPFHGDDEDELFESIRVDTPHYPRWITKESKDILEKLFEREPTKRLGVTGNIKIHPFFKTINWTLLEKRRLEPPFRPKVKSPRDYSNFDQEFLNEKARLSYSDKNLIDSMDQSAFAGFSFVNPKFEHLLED
Description for tyrosine kinases: To coat slides with kinase substrate, the substrates are diluted to 10 ng/μL in 1×PBS and 180-200 μL of substrate solution are pipetted onto one slide, e.g., a glass slide, aldehyde treated slides (TeleChem International, Inc.), nitrocellulose-coated slides (Schleicher & Schuell), slides with an amino-silane surface (Corning). A second slide is then placed on top of the first slide so that the sides to be deposited with kinases face each other. Care should be taken that the liquid covers the entire slide and that there are no air bubbles. The slides are placed in a 50 mL conical tube, making sure they are laying flat and incubated at 4° C. for one hour to several days.
Subsequently, approximately 100 mL of PBST are added to the dish. The slides are then washed for one hour at 4° C. with shaking. The PBST is then discarded and the slides are gently rinsed with dH2O using a squirt bottle. After rinsing, the slides are placed into a slide boxes and centrifuged at 4000 rpm for one minute. The slides are then stored at 4° C. until printing with kinase.
1 mL of kinase assay buffer for every 12 glass slides to be probed is prepared. 6 μL of gamma-AT^33P (10 μCi/μL) are added to the assay buffer. The slides are placed in 50 mL conical tubes, laying flat, proteins facing up. 70 μL to 150 μL of the kinase assay buffer with gamma-AT^33P are added onto each slide. […]

In the case of `N#C/C(=C/c1ccc(O)c(O)c1)C(=O)NCc1ccccc1` [AG 490], the “Inhibition Results (Level)” value at kinases of Table 5 [1] (inhibitor 100 uM) stood at 2. The compound also registered an Inhibition level on kinases of Table 5 [2] (inhibitor 100 uM) of 1.

As for `COc1cc2ncnc(Nc3cccc(Cl)c3)c2cc1OC` [AG 1478], the “Inhibition Results (Level)” value on kinases of Table 5 [1] (inhibitor 100 uM) was found to be 0. On kinases of Table 5 [2] (inhibitor 100 uM), this compound had an Inhibition level of 2.

For `O=c1c(-c2ccc(O)cc2)coc2cc(O)cc(O)c12` [Genistein], the “Inhibition Results (Level)” value on kinases of Table 5 [1] (inhibitor 100 uM) is 2; on kinases of Table 5 [1] (inhibitor <3.7 mM) it was 0. Moreover, the Inhibition level worked out at 0 on kinases of Table 5 [2] (concentration not given) and 2 on kinases of Table 5 [2] (inhibitor 100 uM).

On to `O=S(=O)(NCCNC/C=C/c1ccc(Br)cc1)c1cccc2cnccc12` [H-89], for which the “Inhibition Results (Level)” value on kinases of Table 5 [1] (inhibitor 100 uM) and on kinases of Table 5 [2] (inhibitor 100 uM) was 2 throughout.

Regarding `CC(C)(C)n1nc(-c2ccc(Cl)cc2)c2c(N)ncnc21` [PP2], on EPHB3, the “inhibition of EPHB3 (dose-response)” value is given as “strongly inhibits”. In addition, the “inhibition of PRKCD (dose-response)” value at PRKCD is “not”. In the assay with 39 kinases (Table 4), the “specificity observed in global profiling (percentage-of-inhibition data)” value is on record as “primarily inhibited tyrosine kinases”. In addition, in the assay with tyrosine kinases, the “inhibition of tyrosine kinases” value is on record as “strongly inhibited”. Also, the “Inhibition Results (Level)” value at kinases of Table 5 [1] (inhibitor 100 uM) stood at 1. This compound also yielded an Inhibition level on kinases of Table 5 [2] (inhibitor 100 uM) of 2.

In the case of `O=c1c(O)c(-c2ccc(O)c(O)c2)oc2cc(O)cc(O)c12` [Quercetin], the entries for the “Inhibition Results (Level)” value on kinases of Table 5 [1] (inhibitor 100 uM) and on kinases of Table 5 [2] (inhibitor 100 uM) were 0 and 2, respectively.

For the compound `Cn1cc(C2=C(c3cn(CCCSC(=N)N)c4ccccc34)C(=O)NC2=O)c2ccccc21` [Ro-31-8220], the “specificity observed in global profiling (percentage-of-inhibition data)” value with 39 kinases (Table 4) was “more specifically targeted the serine-threonine kinases”. Besides, the entries for the “Inhibition Results (Level)” value on kinases of Table 5 [1] (inhibitor 90 uM) and on kinases of Table 5 [1] (inhibitor 100 uM) were 2 and 0, respectively. The Inhibition level on kinases of Table 5 [2] (concentration not given) and on kinases of Table 5 [2] (inhibitor 100 uM) was 2 throughout.

Consider `CC(=O)c1c(O)c(C)c(O)c(Cc2c(O)c3c(c(C(=O)/C=C/c4ccccc4)c2O)OC(C)(C)C=C3)c1O` [Rottlerin (Mallotoxin)], for which the “Inhibition Results (Level)” value was found to be 2 at kinases of Table 5 [1] (inhibitor 100 uM) and 0 on kinases of Table 5 [2] (inhibitor 100 uM).

Consider `CN[C@@H]1C[C@H]2O[C@@](C)([C@@H]1OC)n1c3ccccc3c3c4c(c5c6ccccc6n2c5c31)C(=O)NC4` [Staurosporine], for which, at EPHB3, the “inhibition of EPHB3 (dose-response)” value was “not”. Besides, at FYN [3], the “inhibition of FYN (dose-response)” value was “strongly inhibits”. The “inhibition of FYN in global profiling” value at FYN [4] is reported as “inhibited”. The “specificity observed in global profiling (percentage-of-inhibition data)” value with 39 kinases (Table 4) is “broad spectrum of kinases inhibited”.

The values are drawn from patent US20090099029A1, “Methods and substrates for conducting assays” (Invitrogen Corporation, priority 2005, published 2009).
